Test results taken from US11731943B2, “Therapeutic compounds, compositions and methods of use thereof” (priority 2016, dated 2023).
Read-outs that look alike come from different tables or passages of the source.

Columns and labels:
[1] = target: isolated recombinant JAK1 kinase domain (Homo sapiens (Human), UniProt P23458); experiment: JAK1 enzyme assay (Caliper LabChip, Ki); type: biochemical
Method in brief: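 Ki derived via Morrison tight-binding model, ATP-competitive correction applied. Read-out: product/total ratio of a 5-carboxyfluorescein-tagged JAK3 peptide separated on Caliper LabChip after phosphorylation by isolated human JAK1 kinase domain (22 °C, 30 min; EDTA quench, 50 mM final).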

[2] = target: isolated recombinant JAK2 kinase domain (Homo sapiens (Human), UniProt O60674); experiment: JAK2 enzyme assay (Caliper LabChip, Ki); type: biochemical
Chain of isolated recombinant JAK2 kinase domain (O60674 849-1124): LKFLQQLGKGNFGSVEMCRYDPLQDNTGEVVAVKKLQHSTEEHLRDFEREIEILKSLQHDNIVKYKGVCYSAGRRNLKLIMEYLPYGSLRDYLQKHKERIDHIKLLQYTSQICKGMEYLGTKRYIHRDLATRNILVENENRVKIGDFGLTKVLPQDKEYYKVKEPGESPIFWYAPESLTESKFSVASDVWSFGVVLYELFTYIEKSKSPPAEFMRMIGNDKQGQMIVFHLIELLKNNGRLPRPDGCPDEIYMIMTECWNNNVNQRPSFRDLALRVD
Method in brief: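 Caliper LabChip readout of phosphorylated product as a fraction of total substrate, a fluorescently N-terminally labelled JAK3-derived peptide. Isolated human JAK kinase domains were incubated 30 min at 22 °C before EDTA quench (50 mM final).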

[3] = system: JAK1-dependent STAT6 phosphorylation downstream of IL-13 stimulation in BEAS-2B human bronchial epithelial cells; experiment: JAK1 pathway assay in BEAS-2B cells (IL-13-pSTAT6, MSD); type: cell-based
[4] = Homo sapiens, BEAS-2B, BEAS-2B cells, IL-13 stimulation, read-out: IL-13 p-STAT6 BEAS-2B IC50
[5] = BEAS-2B cells, IL-13 stimulation, read-out: IL-13 p-STAT6 BEAS-2B IC50

Chain of isolated recombinant JAK1 kinase domain (P23458 875-1153): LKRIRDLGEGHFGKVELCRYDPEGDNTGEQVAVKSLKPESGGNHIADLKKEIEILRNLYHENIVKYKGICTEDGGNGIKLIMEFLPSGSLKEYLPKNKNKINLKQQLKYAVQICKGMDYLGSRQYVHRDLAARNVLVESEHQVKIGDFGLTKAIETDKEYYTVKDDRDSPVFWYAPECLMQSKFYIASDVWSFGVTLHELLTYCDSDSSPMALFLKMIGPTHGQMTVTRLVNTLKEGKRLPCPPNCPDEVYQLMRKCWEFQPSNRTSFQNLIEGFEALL

N#CCC1(n2cc(C(N)=O)c(NC(=O)C3CC3)n2)CCN(Cc2ccc(C#N)cc2)CC1 [Example 66]
Ki ([1]; read-out: JAK1 Ki): 4 nM
Ki [2]: 50.2 nM
IC50 [3, 4]: 910 nM

C#Cc1ccc(CN2CCC(CC#N)(n3cc(C(N)=O)c(NC(=O)OC)n3)C(F)C2)c(F)c1 (stereo not drawn) [Example 297, methyl N-[4-carbamoyl-1-[4-(cyanomethyl)-1-[(4-ethynyl-2-fluoro-phenyl)methyl]-3-fluoro-4-piperidyl]pyrazol-3-yl]carbamate]
Ki ([1]; read-out: JAK1 Ki): 0.53 nM
Ki [2]: 0.76 nM
IC50 [3, 4]: 62 nM

COC(=O)Nc1nn(C2(CC#N)CCN(Cc3ccc(-c4ccco4)nc3F)CC2F)cc1C(N)=O (stereo not drawn) [Example 226, methyl N-[4-carbamoyl-1-[4-(cyanomethyl)-3-fluoro-1-[[2-fluoro-6-(2-furyl)-3-pyridyl]methyl]-4-piperidyl]pyrazol-3-yl]carbamate]
Ki ([1]; read-out: JAK1 Ki): 0.37 nM
Ki [2]: 0.56 nM
IC50 [3, 4]: 49 nM

N#CCC1(n2cc(C(N)=O)c(NC(=O)C3CC3)n2)CCN(Cc2ccc(-c3ccco3)cc2)CC1F (stereo not drawn) [Example 215, 1-[4-(cyanomethyl)-3-fluoro-1-[[4-(2-furyl)phenyl]methyl]-4-piperidyl]-3-(cyclopropanecarbonylamino) pyrazole-4-carboxamide]
Ki ([1]; read-out: JAK1 Ki): 0.24 nM
Ki [2]: 0.25 nM
IC50 [3, 4]: 12 nM

COC(=O)Nc1nn(C2(CC#N)CCC(N3CC(F)(c4ccccc4)C3)CC2)cc1C(N)=O (stereo not drawn) [Example 243, methyl N-[4-carbamoyl-1-[1-(cyanomethyl)-4-(3-fluoro-3-phenyl-azetidin-1-yl)cyclohexyl]pyrazol-3-yl]carbamate]
Ki ([1]; read-out: JAK1 Ki): 2.7 nM
Ki [2]: 14 nM
IC50 [3, 4]: 100 nM

N#CCC1(n2cc(C(N)=O)c(NC(=O)C3CC3)n2)CCN(Cc2ccccc2C#N)CC1 [Example 64]
Ki ([1]; read-out: JAK1 Ki): 7.3 nM
Ki [2]: 83.5 nM
IC50 [3, 4]: > 1000 nM

COC(=O)Nc1nn(C2(CC#N)CCN(Cc3ccc(-c4ccoc4)nc3F)CC2F)cc1C(N)=O (stereo not drawn) [Example 239, methyl N-[4-carbamoyl-1-[4-(cyanomethyl)-3-fluoro-1-[[2-fluoro-6-(3-furyl)-3-pyridyl]methyl]-4-piperidyl]pyrazol-3-yl]carbamate]
Ki ([1]; read-out: JAK1 Ki): 0.51 nM
Ki [2]: 0.89 nM
IC50 [3, 4]: 67 nM

N#CC[C@]1(n2cc(C(N)=O)c(NC(=O)C3CC3)n2)CC[C@@H](NCC(F)(F)F)CC1 (single isomer, unassigned) [Example 1]
Ki [1]: > 562 nM
Ki [2]: 252 nM
IC50 [3, 4]: > 1000 nM

CCc1ccc(-c2ccc(CN3CCC(CC#N)(n4cc(C(N)=O)c(NC(=O)C5CC5)n4)CC3)cc2O)cc1 [Example 189, 1-[4-(cyanomethyl)-1-[[4-(4-ethylphenyl)-3-hydroxy-phenyl]methyl]-4-piperidyl]-3-(cyclopropanecarbonylamino) pyrazole-4-carboxamide]
Ki ([1]; read-out: JAK1 Ki): 0.33 nM
Ki [2]: 1.3 nM
IC50 [3, 4]: 38 nM

N#CCC1(n2cc(C(N)=O)c(NC(=O)C3CC3)n2)CCC(Nc2ccccc2)CC1 (stereo not drawn) [Example 282, 1-[4-anilino-1-(cyanomethyl)cyclohexyl]-3-(cyclopropanecarbonylamino) pyrazole-4-carboxamide]
Ki ([1]; read-out: JAK1 Ki): 0.62 nM
Ki [2]: 9.6 nM
IC50 [3, 4]: 48 nM

N#CCC1(n2cc(C(N)=O)c(NC(=O)C3CC3C#N)n2)CCN(CC2CCC(c3ccccc3)CC2)CC1F (stereo not drawn) [Example 230, 3-[(2-cyanocyclopropanecarbonyl)amino]-1-[4-(cyanomethyl)-3-fluoro-1-[(4-phenylcyclohexyl)methyl]-4-piperidyl]pyrazole-4-carboxamide]
Ki ([1]; read-out: JAK1 Ki): 0.51 nM
Ki [2]: 1.8 nM
IC50 [3, 5]: 60 nM

N#CCC1(n2cc(C(N)=O)c(NC(=O)C3CC3C#N)n2)CCN(Cc2ccc(-c3ccccc3)cc2F)CC1F (stereo not drawn) [Example 218, 3-[(2-cyanocyclopropanecarbonyl)amino]-1-[4-(cyanomethyl)-3-fluoro-1-[(2-fluoro-4-phenyl-phenyl)methyl]-4-piperidyl]pyrazole-4-carboxamide]
Ki ([1]; read-out: JAK1 Ki): 0.35 nM
Ki [2]: 0.59 nM
IC50 [3, 5]: 28 nM

COC(=O)Nc1nn(C2(CC#N)CCN(Cc3cc(O)c(-c4ccoc4)cc3F)CC2F)cc1C(N)=O (stereo not drawn) [Example 237, methyl N-[4-carbamoyl-1-[4-(cyanomethyl)-3-fluoro-1-[[2-fluoro-4-(3-furyl)-5-hydroxy-phenyl]methyl]-4-piperidyl]pyrazol-3-yl]carbamate]
Ki ([1]; read-out: JAK1 Ki): 0.22 nM
Ki [2]: 0.3 nM
IC50 [3, 4]: 27 nM

N#CC[C@]1(n2cc(C(N)=O)c(NC(=O)C3CC3)n2)CCN(Cc2ccc(-c3ccccc3)cc2)C[C@@H]1F (single isomer, unassigned) [Example 12]
Ki ([1]; read-out: JAK1 Ki): 1.3 nM
Ki [2]: 6.8 nM
IC50 [3, 4]: 103 nM

COC(=O)Nc1nn(C2(CC#N)CCN(Cc3cc(O)c(Br)cc3Cl)CC2F)cc1C(N)=O (stereo not drawn) [Example 296, methyl N-[1-[1-[(4-bromo-2-chloro-5-hydroxy-phenyl)methyl]-4-(cyanomethyl)-3-fluoro-4-piperidyl]-4-carbamoyl-pyrazol-3-yl]carbamate]
Ki ([1]; read-out: JAK1 Ki): 0.56 nM
Ki [2]: 0.59 nM
IC50 [3, 4]: 52 nM

N#CCC1(n2cc(C(N)=O)c(NC(=O)C3CC3)n2)CCN(Cc2ccc(-c3ccccc3)cc2O)CC1 [Example 204, 1-[4-(cyanomethyl)-1-[(2-hydroxy-4-phenyl-phenyl)methyl]-4-piperidyl]-3-(cyclopropanecarbonylamino) pyrazole-4-carboxamide]
Ki ([1]; read-out: JAK1 Ki): 1 nM
Ki [2]: 1.8 nM
IC50 [3, 4]: 50 nM

CN(CC(F)(F)F)[C@H]1CC[C@](CC#N)(n2cc(C(N)=O)c(NC(=O)C3CC3)n2)CC1 [Example 129]
Ki [1]: 3.3 nM
Ki [2]: 16.3 nM
IC50 [3, 4]: 393 nM

C#Cc1ccc(OC2(C)CN(C3CCC(CC#N)(n4cc(C(N)=O)c(NC(=O)C5CC5)n4)CC3)C2)cc1 (stereo not drawn) [Example 294, 1-(1-(Cyanomethyl)-4-(3-(4-ethynylphenoxy)-3-methylazetidin-1-yl)cyclohexyl)-3-(cyclopropanecarboxamido)-1H-pyrazole-4-carboxamide]
Ki ([1]; read-out: JAK1 Ki): 0.74 nM
Ki [2]: 1.1 nM
IC50 [3, 4]: 47 nM

N#CC[C@@]1(n2cc(C(N)=O)c(NC(=O)C3CC3)n2)CCN(Cc2ccc(-c3ccccc3)cc2)C[C@@H]1F (single isomer, unassigned) [Example 13]
Ki ([1]; read-out: JAK1 Ki): 0.6 nM
Ki [2]: 2.2 nM
IC50 [3, 4]: 37 nM

N#CC[C@]1(n2cc(C(N)=O)c(NC(=O)C3CC3)n2)CC[C@@H](NCc2ccc(-c3ccccc3)cc2)CC1 [Example 128]
Ki [1]: 4.6 nM
Ki [2]: 46.4 nM
IC50 ([3]; Homo sapiens, BEAS-2B, read-out: IL-13 p-STAT6 BEAS-2B IC50, BEAS-2B cells, IL-13 stimulation): 349 nM

C=C(C)c1cc(F)c(CN2CCC(CC#N)(n3cc(C(N)=O)c(NC(=O)OC)n3)C(F)C2)cc1O (stereo not drawn) [Example 274, methyl N-[4-carbamoyl-1-[4-(cyanomethyl)-3-fluoro-1-[(2-fluoro-5-hydroxy-4-isopropenyl-phenyl)methyl]-4-piperidyl]pyrazol-3-yl]carbamate]
Ki ([1]; read-out: JAK1 Ki): 0.58 nM
Ki [2]: 0.61 nM
IC50 [3, 4]: 38 nM

N#CCC1(n2cc(C(N)=O)c(NC(=O)C3CC3)n2)CCN(CC2CCC(c3ccccc3)CC2)CC1F (stereo not drawn) [Example 234, 1-[4-(cyanomethyl)-3-fluoro-1-[(4-phenylcyclohexyl)methyl]-4-piperidyl]-3-(cyclopropanecarbonylamino) pyrazole-4-carboxamide]
Ki ([1]; read-out: JAK1 Ki): 0.27 nM
Ki [2]: 1 nM
IC50 [3, 5]: 31 nM

N#CCC1(n2cc(C(N)=O)c(NC(=O)C3CC3)n2)CCN(Cc2ccc(-c3ccc(Cl)cc3)cc2)CC1 [Example 147, 1-[1-[[4-(4-chlorophenyl)phenyl]methyl]-4-(cyanomethyl)-4-piperidyl]-3-(cyclopropanecarbonylamino) pyrazole-4-carboxamide]
Ki ([1]; read-out: JAK1 Ki): 2.1 nM
Ki [2]: 32 nM
IC50 [3, 4]: 51 nM

N#CC[C@]1(n2cc(C(N)=O)c(NC(=O)C3CC3)n2)CC[C@H](N2CC(C(F)(F)F)C2)CC1 (single isomer, unassigned) [Example 8]
Ki ([1]; read-out: JAK1 Ki): 1.7 nM
Ki [2]: 11 nM
IC50 [3, 4]: 194 nM

N#CC[C@]1(n2cc(C(N)=O)c(NC(=O)C3CC3)n2)CCN(Cc2ccccc2)C[C@@H]1F [Example 164, 1-[1-benzyl-4-(cyanomethyl)-3-fluoro-4-piperidyl]-3-(cyclopropanecarbonylamino) pyrazole-4-carboxamide]
Ki ([1]; read-out: JAK1 Ki): 2.7 nM
Ki [2]: 9 nM
IC50 [3, 4]: 275 nM

N#CCC1(n2cc(C(N)=O)c(NC(=O)C3CC3)n2)CCN(C(=O)CCC(F)(F)F)CC1 [Example 169, 1-[4-(cyanomethyl)-1-(4,4,4-trifluorobutanoyl)-4-piperidyl]-3-(cyclopropanecarbonylamino) pyrazole-4-carboxamide]
Ki ([1]; read-out: JAK1 Ki): 3.7 nM
Ki [2]: 48.3 nM
IC50 [3, 4]: > 1000 nM

CCn1ccc(-c2ccc(CN3CCC(CC#N)(n4cc(C(N)=O)c(NC(=O)C5CC5)n4)C(F)C3)cc2)n1 (stereo not drawn) [Example 217, 1-[4-(cyanomethyl)-1-[[4-(1-ethylpyrazol-3-yl)phenyl]methyl]-3-fluoro-4-piperidyl]-3-(cyclopropanecarbonylamino) pyrazole-4-carboxamide]
Ki ([1]; read-out: JAK1 Ki): 0.66 nM
Ki [2]: 0.49 nM
IC50 [3, 4]: 56 nM

CC1(Oc2ccc(OC(F)F)cc2)CN(C2CCC(CC#N)(n3cc(C(N)=O)c(NC(=O)C4CC4)n3)CC2)C1 (stereo not drawn) [Example 291, 1-[1-(cyanomethyl)-4-[3-[4-(difluoromethoxy)phenoxy]-3-methyl-azetidin-1-yl]cyclohexyl]-3-(cyclopropanecarbonylamino) pyrazole-4-carboxamide]
Ki ([1]; read-out: JAK1 Ki): 0.86 nM
Ki [2]: 2.1 nM
IC50 [3, 4]: 54 nM
